For test [1], the system named is Plasmodium falciparum. The test is described as follows: Antiplasmodial activity against Plasmodium falciparum. The test is classed as functional, organism-based.
The subject of test [2] is Plasmodium falciparum. Put plainly: Antiplasmodial activity against Plasmodium falciparum infected in mouse. Format: functional.

The term IC50 denotes the concentration at which inhibition is half-maximal. For `O=C(c1ccc(-c2cncc(-c3cncc(F)c3)n2)cc1)N1CCNCC1`, the concentration for half-maximal inhibition (IC50) in the test on Plasmodium falciparum [1] was found to be 25 nM. The same compound gave an ED90 in the test with Plasmodium falciparum [2] of 1.5 mg/kg.

With `Cc1cncc(-c2cncc(-c3ccc(C(=O)N4CCNCC4)cc3)n2)c1`, the IC50 with Plasmodium falciparum [1] is 35 nM. The ED90 with Plasmodium falciparum [2] came out at 2.2 mg/kg.
